Reference: patent US5760036A, “Aminediol protease inhibitors” (E. R. Squibb & Sons, Inc., priority 1995, dated 1998)
Structures can show the parent of a compound that is named as a salt. Where two headings read alike, the source gives them in different places.

Columns and labels:
[1] = tested on: RF strain of HIV (CEM-SS cells); experiment: Cell Culture Anti-HIV Activity (cell viability, formazan); assay type: cell-based; conditions: Human immunodeficiency virus 1, CEM-SS, 144 h, CEM-SS cells, RF strain of HIV, multiplicity of infection 0.04, 6 days at 37° C., 450 nm; read-out: HIV (CEM Cells) IC50
Summary of the method: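 CEM-SS cells (5000/well) infected with HIV RF at MOI 0.04, exposed to half-log serial compound dilutions, incubated 6 days at 37° C. Viability read by tetrazolium reduction to formazan, absorbance 450 nm. IC50 is the concentration raising formazan in infected cells to 50% of uninfected, drug-free cells.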

HIV protease = molecular target: T1, HIV protease (Human immunodeficiency virus type 1 group M subtype B, UniProt P04585); experiment: HIV Protease Assay; assay type: biochemical
T1 construct: and purified protease
Summary of the method: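 Purified protease cleaved 450 μM octapeptide substrate in 50 mM sodium acetate pH 5.5 with 100 μg/ml BSA for 30 minutes at 37° C; product analyzed by reverse-phase HPLC at UV220 after H3PO4 quench. Inhibitors tested at final 10 μM with 4% DMSO.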

[2] = pH 5.5, 10 μM inhibitor, 4% DMSO, 450 μM substrate, pH 5.5, 30 minutes at 37° C., RP-HPLC, read-out: HIV Protease % Inhibition at 10 μM

SMILES | IC50 [1] | inhibition at 10 µM (HIV protease; [2]) | HIV Protease % Inhibition at 10 μM (HIV protease; 10 μM inhibitor, 4% DMSO, 450 μM substrate, pH 5.5, 30 minutes at 37° C., RP-HPLC) | inhibition at 10 µM (HIV protease; pH 5.5, read-out: HIV Protease % Inhibition at 10 μM)
CC(C)[C@H](NC(=O)c1ccc2ccccc2n1)C(=O)N[C@@H](Cc1ccccc1)[C@H](O)CNC[C@@H](O)[C@H](Cc1ccccc1)NC(=O)OC(C)(C)C [Compound 80, [S-[1R*,2S*(2S*,3R*)]]-N-[3-[[3-[[(1,1-Dimethylethoxy)carbonyl]amino]-2-hydroxy-4-phenylbutyl]amino]-2-hydroxy-1-(phenylmethyl)propyl]-N2-(2-quinolinylcarbonyl)-L-valinamide] | 300 nM | 98% |  | 
CC(C)(C)OC(=O)N[C@@H](Cc1ccccc1)[C@H](O)CNC[C@@H](O)[C@H](Cc1ccccc1)NC(=O)OC1c2ccccc2CC1O (stereo partly drawn) [Compound 148, [1S-(1R*, 2S*)]-[Iminobis[2-hydroxy-1-(phenylmethyl)-3,1-propanediyl)]biscarbamic acid, 1,1-dimethylethyl 2,3-dihydro-2-hydroxy-1H-inden-1-yl ester] | 2000 nM |  | 88% | 
CC(C)(C)OC(=O)N[C@@H](Cc1ccccc1)[C@H](O)CNC[C@@H](O)[C@H](Cc1ccccc1)NC(=O)[C@@H](NC(=O)OCc1cc2ncccc2o1)C(C)(C)C [Compound 323, [S-[1R*,2S*(2S*,3R*)]]-[r2,2-Dimethyl-1-[[[3-[[3-[[(1.1-dimethylethoxy)carbonyl]amino]-2-hydroxy-4-phenylbutyl]amino]-2-hydroxy-1-(phenylmethyl)propyl]amino]carbonyl]propyl]carbamic acid, (2-furo[3,2-b]pyridinyl)methyl ester] | 14 nM | 100% |  | 
CC(C)(C)OC(=O)N[C@@H](Cc1ccccc1)[C@H](O)CNC[C@@H](O)[C@H](Cc1ccc(OCCn2ccnc2)cc1)NC(=O)OC(C)(C)C [Compound 290, [1S-[1R*,2S*(2S*,3R*)]]-[3-[[3-[[(1,1-Dimethylethoxy)carbonyl]amino]-2-hydroxy-4-[4-[2-(1H-imidazol-1-yl)-ethoxy]phenyl]butyl]amino]-2-hydroxy-1-(phenylmethyl)-propyl]carbamic acid, 1,1-dimethylethyl ester] | 60 nM |  |  | 99%
CC(C)[C@H](NC(=O)[C@@H](N)CO)C(=O)N[C@@H](Cc1ccccc1)[C@H](O)CNC[C@@H](O)[C@H](Cc1ccccc1)NC(=O)OC(C)(C)C (relative stereo) [Compound 212, [1R*,2S*(2S*,3R*)]-N-[N-[3-[[3-[[(1,1-Dimethylethoxy)carbonyl]amino]-2-hydroxy-4-phenylbutyl]amino]-2-hydroxy-1-(phenylmethyl)propyl]-L-valyl]-L-serinamide, fumarate (2:3) salt] | 3800 nM | 99% |  | 
CN(CC(O)C(Cc1ccccc1)NC(=O)OC(C)(C)C)CC(O)C(Cc1ccccc1)NC(=O)OC(C)(C)C (stereo not drawn) [Compound 200, [1S-[1R*,2R*(1R*)]]-[3-[[3-[[(1,1-Dimethylethoxy)carbonyl]-amino]-2-hydroxy-4-phenylbutyl]-methylamino]-2-hydroxy-1-(phenylmethyl)propyl]-carbamic acid, 1,1-dimethylethyl ester] | > 15000 nM | 5% |  | 
CC(C)(C)OC(=O)N[C@@H](Cc1ccccc1)[C@H](O)CNC[C@@H](O)[C@H](Cc1ccccc1)NC(=O)[C@H](CCO)NC(=O)OCc1ccccc1 (relative stereo) [Compound 264, [1R*2S*(2S*,3R*)]-N-[3-[[3-[[(1,1-Dimethylethoxy)carbonyl]amino]-2-hydroxy-4-phenylbutyl]amino]-2-hydroxy-l-(phenylmethyl)propyl]-N^2-[(phenylmethoxy)carbonyl]-L-homoserinamide] | 160 nM | 99% |  | 
CC(C)(C)OC(=O)N[C@@H](Cc1ccccc1)[C@H](O)CNC[C@@H](O)[C@H](Cc1ccccc1)NC(=O)[C@@H](NC(=O)OCc1ccccc1)C(C)(C)C [Compound 88, [1S-[1R*-[1R*,2S*(2S*,3R*)]]]-2,2-Dimethyl-1-[[[3-[[3-[[(1,1-Dimethylethoxcy)-carbonylamino]-2-hydroxy-4-phenylbutyl]amino]-2-hydroxy-1-(phenylmethyl),propyl]amino]-carbonyl]propoyl]carbamic acid, phenylmethyl ester] | 30 nM | 100% |  | 
CC(C)(C)OC(=O)N[C@@H](Cc1ccccc1)[C@H](O)CNC[C@@H](O)[C@H](Cc1ccccc1)NC(=O)OC(C)(C)CCCNC(=O)OCc1ccccc1 [Compound 150, [1S-(1R*,2S*)]-[Iminobis[2-hydroxy-1-(phenylmethyl)-3,1-propanediyl)]biscarbamic acid, 1,1-dimethylethyl 1,1-dimethyl-4-[[(phenylmethoxy)carbonyl]amino]butyl ester] | > 4000 nM | 93% |  | 
CN(CC(O)[C@H](Cc1ccccc1)NC(=O)OC(C)(C)C)C[C@@H](O)[C@H](Cc1ccccc1)NC(=O)OC(C)(C)C (stereo partly drawn) [Compound 198, [1S-[1R*,2S*(3R*)]]-[3-[[3-[[(1,1-Dimethylethoxy)carbonyl]-amino]-2-hydroxy-4-phenylbutyl]-methylamino]-2-hydroxy-1-(phenylmethyl)propyl]-carbamic acid, 1,1-dimethylethyl ester] | > 14000 nM | 10% |  | 
COC(=O)N(C)[C@H](C(=O)N[C@@H](Cc1ccccc1)[C@H](O)CNC[C@@H](O)[C@H](Cc1ccccc1)NC(=O)OC(C)(C)C)C(C)(C)C [Compound 320, [1S-[1R*,2S*,(2S*,3R*)]-[2,2-Dimethyl-1-[[[3-[[3-(1,1-dimethylethoxy)-carbonyl]amino]-2-hydroxy-4-phenylbutyl]amino]-2-hydroxy-1-(phenylmethyl)propyl]amino]-carbonyl]propyl]methylcarbamic acid, methyl ester] | 220 nM | 100% |  | 
